Results published in ChEMBL document CHEMBL1201862, “PubChem BioAssay data set” (2004).
Active and inactive are the calls of the source. For most assays here, no stated cut-off is given here; in the data, actives have a measured EC50 and inactives only a lower limit.

Tests used:
[1] = target: Large T antigen (Simian virus 40, UniProt P03070); type: functional, Betapolyomavirus macacae;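 further: Confirmatory-stage PubChem screen for compounds that inhibit SV40 T antigen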
[2] = target: T1, Heat shock factor protein 1 (Mus musculus, UniProt P38532); assay: HSF1 potentiators in luciferase reporter cells, confirmation, cell-based, NIH3T3, luminescence, dose retest (AID 435004); type: functional;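 further: stress induced by proteasome inhibitor MG132 added 30 min after compound; luciferase reporter driven by HSF1 response element in NIH3T3 cells; actives raise luminescence as potentiators of the MG132 stress response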
T1 sequence (P38532 whole entry): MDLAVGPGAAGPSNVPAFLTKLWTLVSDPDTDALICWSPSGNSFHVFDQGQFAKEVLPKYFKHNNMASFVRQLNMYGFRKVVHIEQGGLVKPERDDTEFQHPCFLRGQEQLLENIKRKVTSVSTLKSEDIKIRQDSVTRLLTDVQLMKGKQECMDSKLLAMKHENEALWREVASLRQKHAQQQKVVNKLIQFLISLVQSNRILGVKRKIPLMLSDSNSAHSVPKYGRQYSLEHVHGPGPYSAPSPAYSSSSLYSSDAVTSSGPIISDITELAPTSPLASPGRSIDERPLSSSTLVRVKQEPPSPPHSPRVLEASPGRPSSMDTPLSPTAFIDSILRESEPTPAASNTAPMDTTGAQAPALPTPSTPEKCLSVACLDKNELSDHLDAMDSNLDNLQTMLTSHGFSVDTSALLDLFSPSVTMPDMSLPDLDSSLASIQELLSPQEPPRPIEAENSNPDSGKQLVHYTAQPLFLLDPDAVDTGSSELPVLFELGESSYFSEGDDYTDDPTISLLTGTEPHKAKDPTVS

[3] = Luminescence Cell-Based Dose Confirmation HTS to Identify Activators of 5'UTR Stem-Loop Driven Alpha-Synuclein mRNA Translation in H4 Neuroglioblastoma Cells. [Related pubchem assays: 1829 (Project Summary), 1814 (Primary HTS)]; type: functional
[4] = tested on: H4; assay: Luminescence Cell-Based Dose Response HTS to Identify Activators of 5'UTR Stem-Loop Driven Prion Protein mRNA Translation in H4 Neuroglioblastoma Cells. [Related pubchem assays: 1829 (Project Summary), 1814 (Primary HTS)]; type: functional; conditions: Homo sapiens
[5] = Luminescence Cell-Based Dose Response HTS to Identify Activators of Luciferase Translation or Activity in H4 […] Cells. [Related pubchem assays: 1829 (Project Summary), 1814 (Primary HTS)]; type: functional
[6] = target: T2, RNA-binding protein pos-1 (Caenorhabditis elegans, UniProt G5EF15); assay: inhibitors of POS-1/mex-3 RNA binding, dose response, biochemical, fluorescence polarization (AID 1964);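 further: purified POS-1 fused to maltose binding protein made in E. coli; potency of compounds blocking POS-1 binding to fluorescent RNA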
T2 sequence (G5EF15 whole entry): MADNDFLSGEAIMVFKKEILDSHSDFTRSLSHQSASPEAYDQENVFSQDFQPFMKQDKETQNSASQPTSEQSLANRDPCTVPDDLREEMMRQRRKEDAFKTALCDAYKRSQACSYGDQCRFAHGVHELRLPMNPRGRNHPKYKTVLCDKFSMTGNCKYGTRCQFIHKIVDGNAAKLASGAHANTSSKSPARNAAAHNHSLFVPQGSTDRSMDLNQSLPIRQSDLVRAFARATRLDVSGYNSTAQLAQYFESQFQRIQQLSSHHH

[7] = target: T3, Zinc finger protein mex-5 (Caenorhabditis elegans, UniProt Q9XUB2); assay: MEX-5/TCR-2 RNA interaction inhibitors, dose response, biochemical, C. elegans, fluorescence polarization (AID 1960)
T3 sequence (Q9XUB2 whole entry): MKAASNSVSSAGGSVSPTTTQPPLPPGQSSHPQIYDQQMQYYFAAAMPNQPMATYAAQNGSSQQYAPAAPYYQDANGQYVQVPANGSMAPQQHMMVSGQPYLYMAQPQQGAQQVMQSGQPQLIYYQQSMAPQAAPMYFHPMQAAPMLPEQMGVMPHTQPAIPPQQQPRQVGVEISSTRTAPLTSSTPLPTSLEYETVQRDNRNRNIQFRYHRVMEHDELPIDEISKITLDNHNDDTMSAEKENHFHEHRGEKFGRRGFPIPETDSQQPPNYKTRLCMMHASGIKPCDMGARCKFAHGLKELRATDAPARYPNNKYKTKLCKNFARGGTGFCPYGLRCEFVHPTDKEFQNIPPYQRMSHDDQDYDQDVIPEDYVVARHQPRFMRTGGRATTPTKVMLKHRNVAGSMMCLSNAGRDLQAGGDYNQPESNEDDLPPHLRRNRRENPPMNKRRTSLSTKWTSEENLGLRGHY

[8] = HEp-2 cell cytotoxicity, dose response, cytotoxicity control for RSV inhibitor project, HTS (AID 2410); type: functional; conditions: human respiratory syncytial virus
[9] = cytotoxicity toward NIH3T3 fibroblasts, dose response, counter-screen, cell-based, ATP luminescence, mouse fibroblasts (AID 2010); type: functional;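 further: cells exposed to compound for about 90 hours before reading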
[10] = inhibitors of intracellular T. cruzi replication, confirmation, NIH3T3 host cells, beta-gal luminescence (AID 2044); type: functional, cell-based;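 further: intracellular parasites grown in NIH/3T3 mouse fibroblasts as host cells; luminescent beta-galactosidase reporter signal from transgenic T. cruzi replicating inside host cells; inhibitors lower the luminescence signal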
[11] = target: T1, Heat shock factor protein 1; assay: inhibition of MG132-induced HSE-luciferase signal, confirmation, cell-based, NIH3T3, luminescence, dose retest (AID 2382); type: functional;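 further: NIH3T3 fibroblasts with HSF1-driven luciferase reporter stressed by proteasome inhibitor MG132; luminescence from HSF1-driven luciferase expression after 8 hours of MG132 stress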

Chain of Large T antigen (P03070 whole entry): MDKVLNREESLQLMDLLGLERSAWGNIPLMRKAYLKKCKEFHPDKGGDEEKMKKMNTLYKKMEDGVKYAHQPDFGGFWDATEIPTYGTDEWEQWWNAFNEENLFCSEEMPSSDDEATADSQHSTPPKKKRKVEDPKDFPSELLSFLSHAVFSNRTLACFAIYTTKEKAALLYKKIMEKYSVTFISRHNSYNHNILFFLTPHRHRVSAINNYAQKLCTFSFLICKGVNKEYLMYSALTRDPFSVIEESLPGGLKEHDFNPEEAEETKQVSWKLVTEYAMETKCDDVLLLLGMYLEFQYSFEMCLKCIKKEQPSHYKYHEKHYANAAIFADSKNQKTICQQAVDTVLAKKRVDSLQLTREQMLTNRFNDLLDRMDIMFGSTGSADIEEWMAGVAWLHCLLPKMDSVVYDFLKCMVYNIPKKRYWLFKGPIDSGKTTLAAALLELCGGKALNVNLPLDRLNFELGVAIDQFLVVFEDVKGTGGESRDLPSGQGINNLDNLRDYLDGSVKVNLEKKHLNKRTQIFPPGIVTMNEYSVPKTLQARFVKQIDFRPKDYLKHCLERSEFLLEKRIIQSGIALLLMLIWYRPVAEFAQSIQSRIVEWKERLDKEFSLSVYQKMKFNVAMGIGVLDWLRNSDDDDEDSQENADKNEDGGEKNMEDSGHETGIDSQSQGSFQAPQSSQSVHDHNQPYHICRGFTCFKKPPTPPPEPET

For O=Nc1ccc(NOC(=O)c2ccccc2Br)cc1, which IC50 [1] is on record?
Its IC50 is 30.1 µM (active).

With COc1cccc(CNc2nc3ccccc3n2C(C)C)c1O as the compound, how does the EC50 [2] read?
Its EC50 is > 260 µM (inactive).

With CN1C(=O)C2(Oc3ccccc3C3CC(c4ccccc4)=NN32)c2ccccc21 (stereo not given) as the compound, how does the EC50 [3] read?
Its EC50 is 11.8 µM (active).

And the EC50 [4]?
Its EC50 is 14.6 µM (active).

What about the EC50 [5] of the same compound?
Its EC50 is 31.6 µM (active).

With Cc1ccc(NC(=O)CSc2nnc(N)s2)cc1S(=O)(=O)N1CCOCC1 as the compound, how does the EC50 [6] read?
Its EC50 is > 300 µM (not active).

And the EC50 [7]?
Its EC50 is > 300 µM (not active).

Which EC50 [6] does the source give for COc1ccc(-n2cc(CNCc3cnc4ccccn34)c(-c3cccc(F)c3)n2)cc1 here?
Its EC50 is > 300 µM (not active).

What about the EC50 [7] of the same compound?
Its EC50 is > 300 µM (inconclusive).

With CCOC(=O)c1nnsc1Nc1ccc(C)c(C)c1 as the compound, how does the EC50 [2] read?
The EC50 was 104 µM (active).

With Cc1ccc(OCCC(=O)N2CCN(c3ccc(O)cc3)CC2)cc1 as the compound, how does the IC50 [1] read?
The IC50 was 11.8 µM (active).

Which IC50 [1] does the source give for CN(C)c1ccc(N2C(=O)CC(Nc3ccc(N4CCOCC4)cc3)C2=O)cc1 (stereo not given) here?
The IC50 was 12.9 µM (active).

Which EC50 [2] does the source give for O=c1c2sccc2nc(SCc2ccc([N+](=O)[O-])cc2)n1Cc1ccccn1 here?
The EC50 was 57.3 µM (active).

What about the CC50 [8] of the same compound?
Its CC50 is 20.4 µM (active).

With Cc1cc(CNC(=O)c2cccc(OC3CCN(S(=O)(=O)N(C)C)CC3)c2)on1 as the compound, how does the EC50 [3] read?
The EC50 was 8.49 µM (active).

And the EC50 [4]?
The EC50 was > 120 µM (not active).

What about the EC50 [5] of the same compound?
Its EC50 is 10.8 µM (active).

For Cn1ccc(C(=O)Oc2ccc(C(=O)Nc3ccc(F)cc3F)cc2)n1, which EC50 [3] is on record?
The EC50 was > 120 µM (not active).

What about the EC50 [4] of the same compound?
Its EC50 is > 120 µM (not active).

And the EC50 [5]?
Its EC50 is 16.8 µM (active).

For N#Cc1c(-c2ccccc2)c(-c2ccccc2)nn(CC(=O)NNC(=O)Nc2ccccc2)c1=O, which EC50 [3] is on record?
Its EC50 is > 120 µM (not active).

And the EC50 [4]?
The EC50 was > 120 µM (not active).

And the EC50 [5]?
The EC50 was 15.2 µM (active).

Which IC50 [1] does the source give for COCCCNC(=S)N/N=C/c1ccc(O)cc1O here?
The IC50 was 9.14 µM (active).

With CC1(OC(=O)c2cccs2)C(=O)C=C2C=C3CCCN3C=C2C1=O (stereo not given) as the compound, how does the EC50 [6] read?
Its EC50 is > 300 µM (not active).

And the EC50 [7]?
Its EC50 is 35.4 µM (active).

For O=C(CN(CC1CCCO1)S(=O)(=O)c1ccc(S(=O)(=O)NC2CC2)cc1)Nc1ccccc1 (stereo not given), which EC50 [2] is on record?
Its EC50 is > 260 µM (inactive).

For Nc1ccccc1C(=O)N/N=C1\C2CN3CCN(C2)CC1(c1ccccc1)C3, which EC50 [3] is on record?
Its EC50 is > 120 µM (not active).

What about the EC50 [4] of the same compound?
Its EC50 is 8.13 µM (active).

And the EC50 [5]?
The EC50 was > 120 µM (not active).

For CCOc1ccccc1/C=N/Nc1ccccc1[N+](=O)[O-], which EC50 [3] is on record?
The EC50 was 0.351 µM (active).

What about the EC50 [4] of the same compound?
The EC50 was 62.5 µM (inconclusive).

What about the EC50 [5] of the same compound?
Its EC50 is 4.07 µM (active).

With CCOc1cc(C(c2c(O)nc(SC)nc2O)c2c(O)nc(SC)nc2O)ccc1O as the compound, how does the IC50 [1] read?
The IC50 was > 100 µM (active).

What does the source list for Cc1cccc(NC(=O)c2sc(-c3ccccc3)nc2-c2ccc([N+](=O)[O-])cc2)c1?
EC50 [9]: > 60 µM (not active); EC50 [10]: 1.53 µM (active); EC50 [11]: > 195 µM (not active)

For N#CC1=C(N)Oc2c(c(=O)oc3ccccc23)C1c1ccccc1OC(=O)c1cccs1 (stereo not given), which EC50 [3] is on record?
The EC50 was > 120 µM (not active).

And the EC50 [4]?
The EC50 was > 120 µM (not active).

And the EC50 [5]?
The EC50 was > 120 µM (not active).
